Experimental data as given in PubChem BioAssay AID328 (DTP/NCI, 2004).
Values joined by “and” are separate entries in the source; they are usually repeats but may differ in a detail not shown here. Equal entries are not always repeated. Toxic doses and inconclusive results are not listed. Rule for the calls: active = survival T/C of 150% or more; inactive = T/C below 125% in these data.

System: BDF1 mice, P388 leukemia ip, median survival T/C
Assay: NCI In Vivo Anticancer Drug Screen. Data for tumor model P388 Leukemia (intraperitoneal) in B6D2F1 (BDF1) mice
Settings: endpoint: median survival time, higher = longer survival
In short: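 In tumour-bearing mice, survival after compound treatment is set against the vehicle group and given as a quotient.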

[1] = dose: 100.0 mg/kg/injection, schedule: Q04DX003 (ip), vehicle: saline with Tween-80
[2] = dose: 200.0 mg/kg/injection, schedule: Q04DX003 (ip), vehicle: saline with Tween-80
[3] = dose: 400.0 mg/kg/injection, schedule: Q04DX003 (ip), vehicle: saline with Tween-80
[4] = dose: 25.0 mg/kg/injection, schedule: Q01DX009 (ip), vehicle: saline with Tween-80
[5] = dose: 100.0 mg/kg/injection, schedule: Q04DX003 (ip), vehicle: Klucel (hydroxypropylcellulose) (HPC)
[6] = dose: 200.0 mg/kg/injection, schedule: Q04DX003 (ip), vehicle: Klucel (hydroxypropylcellulose) (HPC)
[7] = dose: 400.0 mg/kg/injection, schedule: Q04DX003 (ip), vehicle: Klucel (hydroxypropylcellulose) (HPC)
[8] = dose: 50.0 mg/kg/injection, schedule: Q01DX009 (ip), vehicle: saline with Tween-80
[9] = dose: 100.0 mg/kg/injection, schedule: Q01DX009 (ip), vehicle: saline with Tween-80
[10] = dose: 200.0 mg/kg/injection, schedule: Q01DX009 (ip), vehicle: saline with Tween-80

Measured: T/C

CCCCC(O)C1=CC(=O)C2CC(C)=C(C)CC2C1=O (stereo not given)
inactive: [1] 92 % of control | [2] 102 % of control | [3] 100 % of control

Cc1ccc(N2CCN(CCCN3CCN(c4ccccc4Cl)CC3)CC2)cc1
inactive: dose: 6.25 mg/kg/injection, schedule: Q01DX009 (ip), vehicle: saline with Tween-80 86 % of control | dose: 6.25 mg/kg/injection, schedule: Q04DX003 (ip), vehicle: saline 104 % of control | dose: 12.5 mg/kg/injection, schedule: Q01DX009 (ip), vehicle: saline with Tween-80 95 % of control | dose: 12.5 mg/kg/injection, schedule: Q04DX003 (ip), vehicle: saline 100 % of control | [4] 100 % of control | dose: 25.0 mg/kg/injection, schedule: Q04DX003 (ip), vehicle: saline 104 % of control

N/N=C(/C=C/C(=O)O)c1ccccc1
inactive: dose: 100.0 mg/kg/injection, schedule: Q01DX001 (ip), vehicle: saline sonified 100 % of control | dose: 200.0 mg/kg/injection, schedule: Q01DX001 (ip), vehicle: saline sonified 109 % of control | dose: 400.0 mg/kg/injection, schedule: Q01DX001 (ip), vehicle: saline sonified 100 % of control

CCOC(=O)c1[nH]c2c(c1CC(CC)[N+](=O)[O-])CCCC2 (stereo not given)
inactive: [5] 95 % of control | [6] 100 % of control | [7] 91 % of control

CC1(C)SC2C(NC(=O)C(C(=O)O)c3ccccc3)C(=O)N2C1C(=O)O (stereo not given)
inactive: dose: 50.0 mg/kg/injection, schedule: Q01DX010 (ip), vehicle: saline 122 % of control | dose: 100.0 mg/kg/injection, schedule: Q01DX010 (ip), vehicle: saline 113 % of control | dose: 200.0 mg/kg/injection, schedule: Q01DX010 (ip), vehicle: saline 113 % of control | dose: 400.0 mg/kg/injection, schedule: Q01DX010 (ip), vehicle: saline 118 % of control

COc1cc2c(cc1OC)C1CC(O)(c3nccc4cc(OC)c(OC)cc34)CCN1CC2 (stereo not given)
inactive: [8] 91 % of control | [9] 91 % of control | [10] 87 % of control

CCOC(=O)C(I)CC (stereo not given)
inactive: dose: 6.25 mg/kg/injection, schedule: Q04DX003 (ip), vehicle: water 100 % of control | dose: 12.5 mg/kg/injection, schedule: Q01DX009 (ip), vehicle: water 105 % of control | dose: 12.5 mg/kg/injection, schedule: Q04DX003 (ip), vehicle: water 100 % of control | dose: 25.0 mg/kg/injection, schedule: Q01DX009 (ip), vehicle: water 98 % of control | dose: 25.0 mg/kg/injection, schedule: Q04DX003 (ip), vehicle: water 105 % of control | dose: 50.0 mg/kg/injection, schedule: Q01DX009 (ip), vehicle: water 107 % of control | dose: 50.0 mg/kg/injection, schedule: Q04DX003 (ip), vehicle: water 101 % of control | dose: 100.0 mg/kg/injection, schedule: Q01DX009 (ip), vehicle: water 116 % of control | dose: 100.0 mg/kg/injection, schedule: Q04DX003 (ip), vehicle: water 96 % of control | dose: 200.0 mg/kg/injection, schedule: Q01DX009 (ip), vehicle: water 123 % of control | dose: 200.0 mg/kg/injection, schedule: Q04DX003 (ip), vehicle: water 98 % of control and 104 % of control | dose: 300.0 mg/kg/injection, schedule: Q04DX003 (ip), vehicle: water 110 % of control | dose: 400.0 mg/kg/injection, schedule: Q04DX003 (ip), vehicle: water 104 % of control

CC(=O)CC(=O)N1CCCCCC1
inactive: [9] 89 % of control | [1] 109 % of control | [10] 92 % of control | [2] 90 % of control | dose: 400.0 mg/kg/injection, schedule: Q01DX009 (ip), vehicle: saline with Tween-80 107 % of control | [3] 104 % of control

CC(=O)OC1CC2(C)C3(CO3)C1OC1C=C(C)C(=O)C(O)C12CO (stereo not given)
inactive: dose: 5.0 mg/kg/injection, schedule: Q04DX002 (ip), vehicle: saline + alcohol 105 % of control | dose: 10.0 mg/kg/injection, schedule: Q04DX002 (ip), vehicle: saline + alcohol 100 % of control | dose: 20.0 mg/kg/injection, schedule: Q04DX002 (ip), vehicle: saline + alcohol 107 % of control | dose: 40.0 mg/kg/injection, schedule: Q04DX002 (ip), vehicle: saline + alcohol 109 % of control

c1ccc(C2SCSCS2)cc1
inactive: [5] 100 % of control | [6] 95 % of control | [7] 95 % of control

Nc1ccc(N)c2c1C(=O)c1cccc([N+](=O)[O-])c1C2=O
inactive: dose: 25.0 mg/kg/injection, schedule: Q01DX010 (ip), vehicle: carboxymethylcellulose (CMC) 95 % of control | dose: 50.0 mg/kg/injection, schedule: Q01DX010 (ip), vehicle: carboxymethylcellulose (CMC) 105 % of control | dose: 100.0 mg/kg/injection, schedule: Q01DX010 (ip), vehicle: carboxymethylcellulose (CMC) 115 % of control | dose: 200.0 mg/kg/injection, schedule: Q01DX010 (ip), vehicle: carboxymethylcellulose (CMC) 105 % of control | dose: 400.0 mg/kg/injection, schedule: Q01DX010 (ip), vehicle: carboxymethylcellulose (CMC) 110 % of control

ClCCn1cnc2c(SCc3ccccc3Cl)ncnc21
inactive: [4] 100 % of control | [8] 91 % of control | [9] 108 % of control | [1] 100 % of control | [3] 112 % of control

CC(C)(CO)Nc1ccccc1
inactive: dose: 100.0 mg/kg/injection, schedule: Q04DX003 (ip), vehicle: saline 110 % of control | dose: 200.0 mg/kg/injection, schedule: Q04DX003 (ip), vehicle: saline 100 % of control | dose: 400.0 mg/kg/injection, schedule: Q04DX003 (ip), vehicle: saline 100 % of control

CN(C)C(=O)c1ccc(C(C)(C)C)cc1
inactive: dose: 12.5 mg/kg/injection, schedule: Q01DX009 (ip), vehicle: other 104 % of control | dose: 12.5 mg/kg/injection, schedule: Q04DX003 (ip), vehicle: other 106 % of control | dose: 25.0 mg/kg/injection, schedule: Q01DX009 (ip), vehicle: other 103 % of control | dose: 25.0 mg/kg/injection, schedule: Q04DX003 (ip), vehicle: other 121 % of control | dose: 50.0 mg/kg/injection, schedule: Q01DX009 (ip), vehicle: other 113 % of control | dose: 50.0 mg/kg/injection, schedule: Q04DX003 (ip), vehicle: other 97 % of control | dose: 100.0 mg/kg/injection, schedule: Q01DX009 (ip), vehicle: other 101 % of control | dose: 100.0 mg/kg/injection, schedule: Q04DX003 (ip), vehicle: other 106 % of control | dose: 200.0 mg/kg/injection, schedule: Q04DX003 (ip), vehicle: other 95 % of control
